From patent US11612681B2, “Compositions and devices for removal of endotoxins and cytokines from fluids” (priority 2017, dated 2023)

How the values were obtained:
[1] = assay type: binding, E. coli; conditions: 40:1 mass ratio of PMB/LPS
Protocol: (§1) Electrophoresis Assays. The binding capacities of the telodendrimers with LPS and/or BSA were studied and compared with PMB binding using electrophoresis assay. The electrophoresis was carried out in 1.5% agarose gel (tris-borate-EDTA (TBE) buffer) at constant current of 20 mA for 2 h. The gel was imaged by a Bio-Rad Universal Hood II Imager (Bio-Rad Laboratories, Inc.) under SYBR Green modes or photographed under UV illumination.
as §1, with “assays.” for “Assays.”, “bovine serum albumin (BSA)” for “BSA”, “(Tris-borate-EDTA” for “(tris-borate-EDTA”

[2] = Fluorescent polarization assay of FITC-LPS complexation; assay type: binding; conditions: FITC-LPS 10 μg/mL in PBS
Protocol: Fluorescent polarization assays. The fluorescence polarization (FP) was measured on the Multi-Mode Microplate Reader (Synergy™ 2, Biotek, VT) equipped with dichroic mirror (510 nm) and polarizing filter. The measurements were carried out on black flat bottom 96-well plates (Nunclon™ Surface, Roskilde, Denmark). The FP of LPS-FITC was record at excitation and emission filter of 485/20 nm and 528/20 nm, respectively. The experiments were performed in triplicate.

## Polymyxin B [PMB]
[1]
  stability of LPS complex in electrophoresis: unstable and dissociated
[2]
  fluorescent polarization of FITC-LPS: only slightly increased
